# Measurements as given in patent publication US20230082968A1, “EXOGENOUS NITRIC OXIDE FOR IMPROVED SUSCEPTIBILITY AND LOWERED ANTIBIOTIC RESISTANCE IN RESISTANT RESPIRATORY BACTERIA” (The University of North Carolina at Chapel Hill, priority 2020, published 2023).
# Entries after “also recorded” stand apart in the source; their conditions may differ.
# Legend:
# ATCC MRSA = assay: Serial passaging resistance assay; type: cell-based, Methicillin-resistant S. aureus
# Procedure: (§1) Bacteria at a final concentration of 10^6 CFU/mL in TSB were incubated with serial dilutions of COS/NO and/or tobramycin for 24 h. Growth was assessed by measuring absorbance at 600 nm. The wells that had the highest concentration of test agent and an OD600 corresponding to more than 10^8 CFU/mL were diluted to 10^6 cfu/mL in TSB and incubated with fresh solutions of COS/NO or tobramycin for 24 h. A single passage was defined as one exposure, incubation, and subsequent dilution. Bacteria were passaged for up to 70 days.
# P. aeruginosa biofilms = assay: Biofilm pretreatment with nitric oxide, all tested biofilms; type: cell-based; conditions: P. aeruginosa biofilms, COS/NO at 25% MBEC
# Procedure: Bacteria were cultured to a concentration of 10^8 CFU/mL in TSB and diluted to 10^6 CFU/mL in 200 µL TSB in a 96 well plate. Plates were incubated with shaking for 3 days until a non-surface attached viscous aggregate formed that was easily separated from growth medium. Biofilms (100 µL) were removed, gently injected into PBS (200 µL) to remove loosely adhered planktonic cells, and added to a sterile 96 well plate. To the wells, PBS or test agent dissolved in PBS (100 µL) was added and incubated with shaking for 24 h. The biofilm (100 µL) was removed from the well plate, added to 900 µL sterile MilliQ water, and disrupted with pipetting and vortexing. Disrupted biofilms were serially diluted and spiral plated on TSA. Viability was assessed with colony counting. The minimum biofilm eradication concentration (MBEC) was defined as the lowest concentration of test agent required to reduce viability by 5-log (i.e., 10^8 to 10^3 CFU/mL).
# The biofilm was then removed from its 96 well plate, added to a new 96 well plate containing tobramycin dissolved in PBS (100 µL), and incubated for 20 h. The biofilm was disrupted in 900 µL sterile MilliQ water with pipetting and vortexing, serially diluted, and spiral plated on TSA. Viability was assessed with colony counting.
# PAK [1] = assay: Serial passaging resistance assay; type: cell-based, Pseudomonas aeruginosa
# Procedure: as §1
# [2] = test system: PAK, ATCC MRSA, ATCC BCC, and AR 542; assay: NPN uptake assay (outer membrane permeability); type: cell-based; conditions: exposure to COS/NO, FIG. 1
# Procedure: The outer membrane permeability of PAK, ATCC MRSA, ATCC BCC, and AR 542 was assessed with an NPN assay modified from Helander and coworkers [Helander, I. M. & Mattila-Sandholm, T. Fluorometric assessment of Gram-negative bacterial permeabilization. J. Appl. Microbiol. 88, 213-219 (2000)]. Briefly, a stock 4560 µM NPN in acetone solution was prepared fresh each day and diluted to 456 µM in PBS pH 7.4. Bacteria were cultured to a concentration of 10^8 CFU/mL in TSB, collected via centrifugation (5,000 × g for 5 min), and resuspended in PBS. Bacteria were added to COS/NO or DMSO in 1-dram vials and incubated at 37° C. with shaking. After 10 min of incubation, a portion of the exposure solution (196 µL) was removed and added to a black well plate, and 4 µL NPN (456 µM in PBS) was added. Fluorescence was immediately measured at excitation and emission wavelengths of 350 nm and 460 nm, respectively. The background NPN fluorescence in buffer was subtracted.
# PAK [3] = assay: Nitric oxide pretreatment with planktonic bacteria; type: cell-based, Pseudomonas aeruginosa; conditions: NO-pretreatment 25% MIC 4 h
# Procedure: After exposure, wells were serially diluted in sterile MilliQ water and spiral plated on TSA. Viability was assessed by colony counting.
# [4] = test system: P. aeruginosa strain K (PAK); assay: Checkerboard assay of antibiotic combinations with COS/NO; type: cell-based, Pseudomonas aeruginosa; conditions: antibiotic in combination with COS/NO, 24 h
# Procedure: Frozen stocks of bacteria were reconstituted in TSB (3 mL) and cultured overnight. The overnight cultures of bacteria (3 mL) were inoculated into fresh TSB (30 mL) and grown to 10^8 CFU/mL. […] Inhibition was assessed with the resazurin assay and the minimum inhibitory concentration (MIC) was defined as the lowest concentration of antibacterial agent required to prevent the reduction of resazurin (i.e., color change from blue to pink).
# Mol. Pharm. 7, 2289-2296 (2010)]. Briefly, bacteria at a final concentration of 10^6 CFU/mL were incubated with an array of antimicrobial combinations in TSB for 24 h at 37° C. The highest concentration for each antimicrobial tested was 2 × MIC. […] The fractional […] concentration index (ΣFIC) was calculated using Equation 1, reported by Elion et al. [Elion, G. B., Singer, S. & Hitchings, G. H. Antagonists of Nucleic Acid Derivatives: VIII. Synergism in combinations of biochemically related antimetabolites. […] Checkerboard assays were conducted in at least duplicate for each bacterial strain and for each drug combination.
# Characterization of the combinations was performed using the following criteria based on ΣFIC values: < 0.25 is highly synergistic; ≤ 0.5 is synergistic; ≤ 1 is additive; ≤ 4 is indifferent; > 4 is antagonistic.
Compound,Classification (ΣFIC) [4],ΣFIC (median fractional inhibitory concentration index) [4],Classification (PAK [3]; antibiotic 2 µg/mL),Log Difference in bacteria viability with vs without NO-pretreatment (PAK [3]; antibiotic 2 µg/mL) [log],other results
"[N]=O [NO, nitric oxide]",–,–,–,–,"MICn (ATCC MRSA; ATCC MRSA, after n = 30 passages): 384 µg/mL; MIC (ATCC MRSA; Staphylococcus aureus, MRSA, read-out: MIC0): 384 µg/mL; biofilm viability after NO-pretreatment alone (P. aeruginosa biofilms): does not significantly affect; also recorded: does not significantly reduce; MICn (PAK [1]; PAK, after n = 70 passages): 96 µg/mL; MIC (PAK [1]; Pseudomonas aeruginosa, read-out: MIC0): 96 µg/mL; uptake of the hydrophobic fluorophore NPN and crystal violet dye (cell permeability) [2]: increased uptake"
Colistin,Synergistic,0.5,–,–,Log Difference in bacteria viability with vs without NO-pretreatment (PAK [3]; antibiotic […]): 5.13 log
CC(C)(O/N=C(\C(=O)N[C@@H]1C(=O)N2C(C(=O)[O-])=C(C[n+]3ccccc3)CS[C@H]12)c1csc(N)n1)C(=O)O [Ceftazidime],Additive,1,–,–,–
C[C@@H](O)[C@H]1C(=O)N2C(C(=O)O)=C(S[C@@H]3CN[C@H](C(=O)N(C)C)C3)[C@H](C)[C@H]12 [Meropenem],Synergistic,0.5,Synergistic,3.22,–
C[C@H]1[C@H](NC(=O)/C(=N\OC(C)(C)C(=O)O)c2csc(N)n2)C(=O)N1S(=O)(=O)O [Aztreonam],Additive,0.75,Synergistic,5.11,–
